Experimental data published in publication PMC6150310, “Synthesis and Structure–Activity Relationships of 4-Morpholino-7,8-Dihydro-5H-Thiopyrano[4,3-d]pyrimidine Derivatives Bearing Pyrazoline Scaffold” (Molecules : A Journal of Synthetic Chemistry and Natural …, 2017).

Columns and labels:
[1] = tested on: MCF-7 cell line; assay: MTT cytotoxicity assay, MCF-7; type: cell-based; conditions: Homo sapiens, MCF7, 72 h, average of two determinations, NA = No Activity
Procedure: (§1) Taking GDC-0941 as the reference compound, the target compounds (7a–l and 8a–l) were evaluated for the cytotoxicity against four cancer cell lines A549, PC-3, MCF-7, and HepG2 by 3-(4,5-dimethylthiazolyl-2)-2,5-diphenyltetrazolium bromide (MTT) cell proliferation assay. In order to confirm the types of target compound, selective or mixed-type inhibitors, the selected compound, 8d, was measured for its PI3Kα kinase inhibitory activity together with reference compounds GDC-0941 and PI103 via the Kinase-Glo® Luminescent […] assay. The results expressed as inhibition rates or IC50 values are summarized in Table 1 and Table 2, where the values are the average of at least two independent experiments.
(§2) The in vitro cytotoxic activities of Compounds 7a–l and 8a–l were evaluated with A549, PC-3, HepG2, and MCF-7 cell lines by the standard MTT assay, with GDC-0941 as a positive control. The cancer cell lines were cultured in minimum essential medium (MEM) supplement with 10% fetal bovine serum (FBS). Approximately, 4 × 10^3 cells, suspended in MEM medium, were plated onto each well of a 96-well plate and incubated in 5% CO2 at 37 °C for 24 h. The test compounds at the indicated final concentrations were added to the culture medium, and cell cultures continued for 72 h. Fresh MTT was added to each well at a terminal concentration of […] and incubated with cells at 37 °C for 4 h. The formazan crystals were dissolved in 100 µL of DMSO in each well, and the absorbency at 492 nm (for absorbance of MTT formazan) and 630 nm (for the reference wavelength) was measured with an enzyme linked immunosorbent assay (ELISA) reader (MR-96A Mindray Elisa Microplate Reader, Guangzhou, China). All compounds were tested three times in each of the cell lines. The results expressed as inhibition rates or IC50 were the averages of two determinations and calculated using the Bacus Laboratories Inc. Slide Scanner (Bliss) software (the Bacus Laboratories Inc. Slide Scanner (BLISS) system, Lombard, IL, USA).

[2] = tested on: four cancer cell lines (A549, PC-3, MCF-7, HepG2); assay: MTT cytotoxicity assay, four cancer cell lines together; type: cell-based; conditions: Homo sapiens, range over A549, PC-3, MCF-7, HepG2, read-out: IC50 values against four cancer cell lines
Procedure: as §1
The in vitro cytotoxic activities of Compounds 7a–l and 8a–l were evaluated with A549, PC-3, HepG2, and MCF-7 cell lines by the standard MTT assay, with GDC-0941 as a positive control. The cancer cell lines were cultured in minimum essential medium (MEM) supplement with 10% fetal bovine serum (FBS). […] The formazan crystals were dissolved in 100 µL of DMSO in each well, and the absorbency at 492 nm (for absorbance of MTT formazan) and 630 nm (for the reference wavelength) was measured with an enzyme linked immunosorbent assay (ELISA) reader (MR-96A Mindray Elisa Microplate Reader, Guangzhou, China). […]

[3] = molecular target: PI3Kα (Homo sapiens, UniProt P42336); assay: PI3Kα Kinase-Glo Luminescent Kinase Assay; type: biochemical; conditions: 1 µM ATP, 60 min, average of two determinations
Sequence of PI3Kα (P42336 whole entry): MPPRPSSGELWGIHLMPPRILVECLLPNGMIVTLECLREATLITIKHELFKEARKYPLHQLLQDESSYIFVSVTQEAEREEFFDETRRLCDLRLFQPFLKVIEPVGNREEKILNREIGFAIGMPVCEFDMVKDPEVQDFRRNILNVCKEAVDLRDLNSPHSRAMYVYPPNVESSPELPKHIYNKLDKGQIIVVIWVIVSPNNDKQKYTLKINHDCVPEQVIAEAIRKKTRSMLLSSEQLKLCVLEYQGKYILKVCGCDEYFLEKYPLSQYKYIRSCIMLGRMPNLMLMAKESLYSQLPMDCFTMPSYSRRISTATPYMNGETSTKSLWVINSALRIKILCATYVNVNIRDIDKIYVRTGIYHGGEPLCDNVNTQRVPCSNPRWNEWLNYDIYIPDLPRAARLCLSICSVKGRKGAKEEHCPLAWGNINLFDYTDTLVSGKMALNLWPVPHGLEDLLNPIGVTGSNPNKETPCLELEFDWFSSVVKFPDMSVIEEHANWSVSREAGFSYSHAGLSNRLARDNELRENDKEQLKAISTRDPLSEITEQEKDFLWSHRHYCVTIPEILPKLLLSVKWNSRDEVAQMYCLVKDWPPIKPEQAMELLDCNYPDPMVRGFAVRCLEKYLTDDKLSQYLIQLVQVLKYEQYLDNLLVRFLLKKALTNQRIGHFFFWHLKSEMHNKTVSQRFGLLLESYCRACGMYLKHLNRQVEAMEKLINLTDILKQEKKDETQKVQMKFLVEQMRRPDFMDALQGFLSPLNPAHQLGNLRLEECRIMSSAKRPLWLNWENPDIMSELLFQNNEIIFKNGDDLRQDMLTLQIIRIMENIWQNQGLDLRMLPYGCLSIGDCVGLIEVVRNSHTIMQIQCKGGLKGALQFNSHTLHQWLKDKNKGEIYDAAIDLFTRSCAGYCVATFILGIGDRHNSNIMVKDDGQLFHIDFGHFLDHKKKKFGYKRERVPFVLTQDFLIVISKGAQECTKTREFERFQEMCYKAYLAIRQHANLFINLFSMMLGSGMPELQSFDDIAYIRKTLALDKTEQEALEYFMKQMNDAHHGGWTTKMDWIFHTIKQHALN
Sequence of PI3Kα (P27986 whole entry partner): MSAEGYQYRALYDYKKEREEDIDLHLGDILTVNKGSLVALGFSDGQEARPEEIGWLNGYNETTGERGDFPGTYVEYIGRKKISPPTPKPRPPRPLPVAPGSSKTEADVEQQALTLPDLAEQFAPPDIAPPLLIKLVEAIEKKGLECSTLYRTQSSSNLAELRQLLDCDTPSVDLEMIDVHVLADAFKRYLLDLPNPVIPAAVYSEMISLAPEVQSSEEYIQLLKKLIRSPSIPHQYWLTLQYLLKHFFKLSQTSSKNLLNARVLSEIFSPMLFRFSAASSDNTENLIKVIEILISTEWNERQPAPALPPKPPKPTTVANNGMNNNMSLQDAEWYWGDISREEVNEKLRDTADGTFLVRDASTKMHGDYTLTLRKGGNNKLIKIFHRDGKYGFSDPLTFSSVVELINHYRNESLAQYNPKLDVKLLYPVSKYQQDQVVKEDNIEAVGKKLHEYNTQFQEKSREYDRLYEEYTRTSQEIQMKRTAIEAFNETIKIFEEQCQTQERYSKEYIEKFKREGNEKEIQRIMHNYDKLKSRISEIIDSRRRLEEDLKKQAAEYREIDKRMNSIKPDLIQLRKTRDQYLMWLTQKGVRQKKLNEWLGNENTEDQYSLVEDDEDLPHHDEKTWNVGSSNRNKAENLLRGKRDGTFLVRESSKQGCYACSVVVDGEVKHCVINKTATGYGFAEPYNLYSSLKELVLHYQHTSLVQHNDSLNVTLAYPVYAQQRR

[4] = tested on: A549 cell line; assay: MTT cytotoxicity assay, A549; type: cell-based; conditions: Homo sapiens, A549, 72 h, average of two determinations, NA = No Activity
Procedure: as §1, §2

[5] = tested on: HepG2 cell line; assay: MTT cytotoxicity assay, HepG2; type: cell-based; conditions: Homo sapiens, HepG2, 72 h, average of two determinations, NA = No Activity
Procedure: as §1, §2

[6] = tested on: PC-3 cell line; assay: MTT cytotoxicity assay, PC-3; type: cell-based; conditions: Homo sapiens, PC-3, 72 h, average of two determinations, NA = No Activity
Procedure: as §1, §2

| IC50 [3] | melting point | Compound | IC50 [1] | IC50 [2] | IC50 [4] | IC50 [5] | IC50 [6] |
| --- | --- | --- | --- | --- | --- | --- | --- |
| 8.38 ± 0.21 µM | – | O=S1(=O)CCc2nc(N3N=C(c4ccc(F)cc4)C[C@@H]3c3ccc(Cl)c(Cl)c3)nc(N3CCOCC3)c2C1 (racemic) [Compound 8d, (R)-2-(5-(3,4-Dichlorophenyl)-3-(4-fluorophenyl)-4,5-dihydro-1H-pyrazol-1-yl)-4-morpholino-7,8-dihydro-5H-thiopyrano[4,3-d]pyrimidine 6,6-dioxide] | 10.3 ± 0.94 µM | 6.02 to 10.3 µM | – | – | – |
| – | 185 to 186 °C | Clc1ccc([C@H]2CC(c3ccc(Br)cc3)=NN2c2nc3c(c(N4CCOCC4)n2)CSCC3)cc1Cl [Compound 7c, (R)-4-(2-(3-(4-Bromophenyl)-5-(3,4-dichlorophenyl)-4,5-dihydro-1H-pyrazol-1-yl)-7,8-dihydro-5H-thiopyrano[4,3-d]pyrimidin-4-yl)morpholine] | 22.98 ± 0.19 µM | – | 13 ± 0.42 µM | 15.36 ± 0.03 µM | 12.9 ± 1.56 µM |
| – | 140 to 142 °C | COc1ccc(C2=NN(c3nc4c(c(N5CCOCC5)n3)CS(=O)(=O)CC4)[C@@H](c3ccc(F)cc3)C2)cc1 [Compound 8h, (R)-2-(5-(4-Fluorophenyl)-3-(4-methoxyphenyl)-4,5-dihydro-1H-pyrazol-1-yl)-4-morpholino-7,8-dihydro-5H-thiopyrano[4,3-d]pyrimidine 6,6-dioxide] | 33.9 ± 0.45 µM | – | 35 ± 0.74 µM | 32.9 ± 2.82 µM | 26.6 ± 0.33 µM |
| – | 139 to 142 °C | c1ccc(C2=NN(c3nc4c(c(N5CCOCC5)n3)CSCC4)[C@@H](c3ccccc3)C2)cc1 [Compound 7a, (R)-4-(2-(3,5-Diphenyl-4,5-dihydro-1H-pyrazol-1-yl)-7,8-dihydro-5H-thiopyrano[4,3-d]pyrimidin-4-yl)morpholine] | 21.7 ± 0.78 µM | – | 21.7 ± 0.76 µM | 20.3 ± 1.15 µM | 28.8 ± 2.4 µM |
